Here are results for 10 molecules from ChEMBL document CHEMBL1201862, “PubChem BioAssay data set” (2004).

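Values below derive from 48-hour exposures of cells grown in 96-well plates, with endpoints linearly interpolated between the two concentrations bracketing the appropriate inhibition level. GI50 is the concentration that inhibits growth by half.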 Calls of active or inactive are those of the source. No stated cut-off is given here; in the data, active = GI50 up to about 1.1 µM and inactive = higher.

Some test systems named below: DLD-1; DMS-114; HOP-18; KM-20L2; M19-MEL; SNB-78; DMS-273.
Common to all, as to assay: NCI tumour cell line growth inhibition, 48 h

`COc1nc(NC2OC(COC(C)=O)C(OC(C)=O)C(OC(C)=O)C2OC(C)=O)c(/N=C/C=N/c2c(NC3OC(COC(C)=O)C(OC(C)=O)C(OC(C)=O)C3OC(C)=O)nc(OC)[nH]c2=O)c(=O)[nH]1` (centres undefined): the GI50 with DLD-1, in the test on DMS-114, with HOP-18, with KM-20L2 and in the test on M19-MEL was > 100 µM (inactive) each time.

Take `O=C(NCCCCCCNC(=O)NC1OCC(O)C(O)C1O)NC1OCC(O)C(O)C1O` (centres undefined): the GI50 with DLD-1, in the test on DMS-114, in the test on M19-MEL and in the test on SNB-78 was > 100 µM (inactive) throughout.

In the case of `CC(=O)O[C@@H]1C2C(=O)OC(=O)C2C2CCC[C@]23O[C@H]13` (some centres undefined), the GI50 in the test with DLD-1, in the test with DMS-114, in the test with DMS-273, with HOP-18, with KM-20L2 and with M19-MEL was > 100 µM (inactive) throughout. In addition, the GI50 with SNB-78 was > 100 µM (inactive).

In the case of `CC(=O)NNc1nc(C)c(C(=O)NNC(=O)C(=O)Nc2c(Cl)cc([N+](=O)[O-])cc2Cl)s1`, the GI50 with DMS-114 was 32.6 µM (inactive); in the test with DMS-273, 32.6 µM (inactive); in the test on KM-20L2, 31.9 µM (inactive); in the test on M19-MEL, 46.6 µM (inactive); with SNB-78, 31.9 µM (inactive).

In the case of `COc1ccc(/C=C2\N=C(c3ccccc3)N(Nc3nnc(NN4C(=O)/C(=C/c5ccc(OC)cc5)N=C4c4ccccc4)c4ccccc34)C2=O)cc1`, the GI50 in the test with DLD-1 was 42.3 µM (inactive); with DMS-114, 61 µM (inactive); in the test on DMS-273, 41.3 µM (inactive); with HOP-18, 92.3 µM (inactive); in the test with KM-20L2 it was 53.2 µM (inactive); in the test with M19-MEL it was 58.7 µM (inactive). In addition, the GI50 in the test on SNB-78 was > 100 µM (inactive).

`CC(=O)OC(C)C1C2=C(C(=O)CC1(C)O)C(=O)c1c(ccc(-c3ccc4c(c3O)C(=O)C3=C(C4=O)C(C(C)OC(C)=O)C(C)(O)CC3=O)c1O)C2=O` (centres undefined): the GI50 in the test on DLD-1 is 1.11 µM (active); in the test with DMS-114, 0.286 µM (active); in the test with DMS-273 it was 1.52 µM (inactive); with HOP-18, 0.457 µM (active); with KM-20L2, 2.04 µM (inactive); in the test on M19-MEL it was 1.36 µM (inactive). For the same molecule, the GI50 in the test with SNB-78 is 3.18 µM (inactive).

`CC(C)c1cc(C(C)C)c(S(=O)(=O)NN)c(C(C)C)c1`: the GI50 in the test with DLD-1, with DMS-114, in the test on DMS-273, in the test on HOP-18, in the test on KM-20L2 and in the test on M19-MEL was > 100 µM (inactive) throughout. In addition, the GI50 with SNB-78 was > 100 µM (inactive).

In the case of `Cn1cnc(CCc2ccccc2)n1`, the GI50 with DLD-1, with DMS-114, in the test with DMS-273, with HOP-18, with KM-20L2 and with M19-MEL was > 100 µM (inactive) in each case. Moreover, the GI50 in the test with SNB-78 is > 100 µM (inactive).

On to `CC(=O)O[C@@]12CO[C@@H]1C[C@@H](O)[C@@]1(C)C(=O)[C@H](O)C3=C(C)[C@@H](OC(=O)[C@H](O)[C@@H](NC(=O)c4ccccc4)c4ccccc4)C[C@@](O)([C@@H](OC(=O)c4ccccc4)C12)C3(C)C` (some centres undefined), for which the GI50 was < 0.01 µM (active) in the test on DMS-114, < 0.01 µM (active) in the test on DMS-273, 0.0134 µM (active) with KM-20L2 and < 0.01 µM (active) in the test on M19-MEL.

`N#Cc1ccc(Sc2nc3ccccc3[nH]2)cc1`: the GI50 in the test on DLD-1 is > 100 µM (inactive); in the test on DMS-114, 65 µM (inactive); with DMS-273 it was > 100 µM (inactive); in the test with HOP-18 it was > 100 µM (inactive); with M19-MEL, 86.1 µM (inactive); in the test on SNB-78, > 100 µM (inactive).
